Data set [1] concerns radiation-induced fibrosarcoma (RIF) tumors. To be noted: larger tumors; cited from earlier work.
The test system is the same in data set [2]. The data set is described as follows: Preclinical Photofrin-PDT of RIF tumors: [ROS]rx by ROSED from Oxylite-measured or DCS blood-flow-derived oxygen. The class given is in vivo, mice. Conditions: per mouse; for Initial Photofrin concentration, [PS]: in tumor, 5 mg/kg i.v. 24 h before light, 5 mg/kg; for Calculated [ROS]rx, Measured [^3O2] / Calculated [ROS]rx, DCS blood flow: 75 mW/cm^2, 1800 or 3333 s; for Calculated [ROS]rx, Measured [^3O2]: Oxylite-measured oxygen; for Calculated [ROS]rx, DCS blood flow: blood-flow-derived oxygen. As for the experimental part: Tumor model and PDT treatment conditions: A preclinical study was conducted using a murine model to investigate the relationship between the dynamics of tumor oxygen and blood flow during PDT. Female C3H mice (Charles River Laboratories, Kingston, NY) between 6 to 8 weeks of age were used in this study. Radiation-induced fibrosarcoma (RIF) tumors were propagated on the shoulders of mice by intradermal injection of 3×10^5 cells. The mice were fed with chlorophyll-free (alfalfa-free) rodent diet (Harlan Laboratories Inc., Indianapolis, Indiana, US) for two weeks prior to treatment to eliminate the fluorescence signal from chlorophyll-breakdown products, which overlap with the emission spectrum of Photofrin fluorescence. PDT was performed when tumors reached ˜4-5 mm in diameter. The treatment area was depilated with Nair (Church & Dwight Co., Inc., Ewing, New Jersey, US) and 5 mg/kg Photofrin was injected via tail vein 24 hours prior to measurements and light delivery. Tissue optical properties and Photofrin fluorescence spectra were obtained using a custom-made multi-fiber contact probe, as described elsewhere (18, 19), before and after PDT. Tissue oxygenation and blood flow changes were monitored continuously during the delivery of PDT using oximeter and DCS as described below. At a 24-h drug-light interval, superficial irradiation of the tumor was performed with a 630-nm laser (Biolitec AG., A-1030, Vienna). A microlens fiber was coupled to the laser to irradiate the tumor uniformly. Animals used in this study were under the care of the University of Pennsylvania Laboratory Animal Resources and the studies were approved by the University of Pennsylvania Institutional Animal Care and Use Committee.
Measurement of tumor tissue oxygenation during preclinical PDT: Tumor oxygen was monitored throughout the PDT treatment in mice using an optical oxygen partial pressure (pO2) monitor (OxyLite Pro, Oxford Optronix, Oxford, UK), with a bare-fiber-type probe (NX-BF/O/E, Oxford Optronix, Oxford, UK). The tip of the probe was inserted into the tumor at approximately 1-2 mm depth from the treatment surface to measure the changes in tissue oxygen partial pressure within the tumor mass during PDT. ^3O2 concentration was then approximated by multiplying the measured pO2 with ^3O2 solubility in tissue, which is 1.295 μM/mmHg (20, 21).
Measurement of blood flow during preclinical PDT: Tumor blood flow was measured using DCS, an optical technique that measures the rapid speckle intensity fluctuations induced by blood flow. DCS, within a noncontact probe setup, was used to monitor blood flow changes in mice during PDT. A detailed description of the DCS instrument can be found in (22, 23). Briefly, a continuous wave 785-nm laser with long coherence length (CrystaLaser Inc., Reno, NV) delivered light through a source fiber, and the diffuse reflected light was collected using two single mode fibers located 0.3 cm laterally from the source fiber. These fibers were mounted on the imaging plane of a camera with sensor removed. A camera lens was used to focus the laser and to collect diffuse reflected light from the tumor at a fixed distance of 15 cm from the camera lens. This setup permits noncontact blood flow measurements during PDT without obstructing the treatment light. Two single photon counting avalanche photodiodes were used to detect the diffuse light in parallel. Notch filters at 630 nm and a 785 nm bandpass filter were used to prevent the ambient room light and the strong 630-nm treatment laser from saturating the detectors. Tissue blood flow measurements started 5 minutes before the beginning of PDT treatment and lasted until completion of PDT.
Calculation of [ROS]rx using ROSED: The PDT process is described by a set of kinetic equations which can be simplified to compute the production of [ROS]rx (4, 8, 9, 13). […]

Values joined by “and” are separate entries in the source; they are usually repeats but may differ in a detail not shown here. Identical values can stand only once.

Consider Photofrin, for which the “PDT dose threshold from previous study” value in data set [1] is 1200 mM J/cm^2. For the same substance, in data set [2] (treatment time 1800 s), the “Initial Photofrin concentration, [PS]” value is 6.9 µM and 6.8 µM and 5.2 µM and 5.7 µM; the “Calculated [ROS]rx, Measured [^3O2]” value is 1.39 mM and 1.24 mM and 1.07 mM and 1.09 mM; the “Calculated [ROS]rx, DCS blood flow” value was 1.35 mM and 1.18 mM and 1.12 mM and 0.95 mM. Also, in data set [2] (treatment time 3333 s), the “Initial Photofrin concentration, [PS]” value is 6.5 µM and 4.2 µM and 4.5 µM; the “Calculated [ROS]rx, Measured [^3O2]” value is 2.33 mM and 1.73 mM and 1.89 mM; the “Calculated [ROS]rx, DCS blood flow” value is 2.21 mM and 1.92 mM and 1.81 mM.

Values taken from US12324927B2, “Methods and systems for photodynamic therapy calculations” (THE TRUSTEES OF THE UNIVERSITY OF PENNSYLVANIA, priority 2018, dated 2025).
